The values that follow are results of earlier work, collected in US12454714B2, “Monbretin A (MbA) synthesis using a heterologous nucleic acid(s) encoding A MbA pathway enzyme” (The University of British Columbia, priority 2018, dated 2025).

One may read the Ki as a dissociation constant, usually derived from enzyme kinetics or from competition with a known ligand.

The target in data set [1] is T1, human pancreatic α-amylase (HPA) (Homo sapiens, UniProt P04746).
T1 sequence (P04746 16-511): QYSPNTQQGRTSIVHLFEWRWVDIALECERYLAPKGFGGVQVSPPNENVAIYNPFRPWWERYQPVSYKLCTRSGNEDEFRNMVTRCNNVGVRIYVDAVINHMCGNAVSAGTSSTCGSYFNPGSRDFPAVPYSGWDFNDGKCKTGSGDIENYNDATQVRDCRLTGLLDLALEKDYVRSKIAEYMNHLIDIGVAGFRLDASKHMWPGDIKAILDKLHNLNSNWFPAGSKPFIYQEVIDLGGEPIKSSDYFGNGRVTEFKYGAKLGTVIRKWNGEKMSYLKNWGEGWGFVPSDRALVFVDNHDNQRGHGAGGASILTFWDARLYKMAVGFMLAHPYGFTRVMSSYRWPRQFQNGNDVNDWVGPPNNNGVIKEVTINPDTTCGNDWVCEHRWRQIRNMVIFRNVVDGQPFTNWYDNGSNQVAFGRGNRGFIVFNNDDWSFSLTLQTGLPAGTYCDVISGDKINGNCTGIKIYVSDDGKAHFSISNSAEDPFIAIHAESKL

Data set [2] has as its system gut α-glucosidases. The note with it: selectivity versus HPA.
In data set [3] the test system is “Zucker diabetic fatty” rats.

Values joined by “and” are separate entries in the source; they are usually repeats but may differ in a detail not shown here. Equal values may be shown once. Read-outs that look alike come from different tables or passages of the source.

In the case of `CC1OC(OC2COC(Oc3c(O)cc(-c4oc5cc(O)cc(O)c5c(=O)c4OC4OC(C)C(O)C(O)C4OC4OC(COC(=O)C=Cc5ccc(O)c(O)c5)C(O)C(O)C4OC4OC(CO)C(O)C(O)C4O)cc3O)C(O)C2O)C(O)C(O)C1O` [MbA, myricetin 3-O-(glucosyl-6′-O-caffeoyl)-1,2-β-D-glucosyl 1,2-α-L-rhamnoside 4′-O-α-L-rhamnosyl 1,4-β-D-xyloside], in data set [1], the “HPA inhibition, in words” value is “potent and selective inhibitors”; the Ki was 8 nM and 8.1 nM. Moreover, the “effect on the gut α-glucosidases” value in data set [2] is given as “does not affect”. In addition, the blood-glucose-lowering activity result in data set [3] is on record as “effective blood-glucose-lowering”.
For `CC1OC(Oc2c(-c3cc(O)c(O)c(O)c3)oc3cc(O)cc(O)c3c2=O)C(OC2OC(COC(=O)C=Cc3ccc(O)c(O)c3)C(O)C(O)C2OC2OC(CO)C(O)C(O)C2O)C(O)C1O` [MbA-XR^2, myricetin 3-O-(glucosyl-6′-O-caffeoyl)-1,2-β-D-glucosyl 1,2-α-L-rhamnoside], in data set [1], the inhibition constant (Ki) is 42 nM.
For the molecule `CC1OC(Oc2c(-c3cc(O)c(O)c(O)c3)oc3cc(O)cc(O)c3c2=O)C(OC2OC(COC(=O)C=Cc3ccc(O)c(O)c3)C(O)C(O)C2O)C(O)C1O` [mini-MbA, myricetin 3-O-(6′-O-caffeoyl)-β-D-glucosyl 1,2-α-L-rhamnoside], in data set [1], the “HPA inhibition, in words” value was “potent and selective inhibitors”; the Ki is 93 nM. Also, in data set [1] (listed as Mini-MbA), the Ki is 90 nM.
